Literature values as cited in patent US20250222110A1, “METHODS AND COMPOSITIONS FOR TREATMENT OF AGE-RELATED CATARACTS” (LIVIONEX, Inc., priority 2024, published 2025).

Details: 79° F.

water solubility: 34 % w/v
Structure (SMILES): CS(C)(=O)=O [MSM, methylsulfonylmethane]
